# Columns and labels:
# PCSK9 [1] = target: T1, PCSK9 (Homo sapiens, UniProt Q8NBP7); assay: Differential scanning calorimetry (DSC) assay, direct binding / thermal stabilization of PCSK9; conditions: Tm(with compound)−Tm(no compound); 2 μM PCSK9, 300 μM test compound
# Method in brief: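 Thermal stabilization of 2 μM PCSK9 with or without 300 μM compound in 25 mM HEPES pH 7.5, 150 mM NaCl, 1 mM CaCl2, 3.75% DMSO. Sample heated 20–80 °C at 200 °C/hr against buffer reference. Protein Tm derived from each thermogram.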
# PCSK9 [2] = target: T1, PCSK9; assay: Fluorescence polarization competition binding assay (probe: compound of Example 57); conditions: 2 μM PCSK9, 50 nM compound of Example 57 as probe, overnight incubation; read-out: FP IC
# Method in brief: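 Competition fluorescence-polarization binding: 2 μM PCSK9 with 50 nM fluorescent probe in 20 mM HEPES pH 7.5, 150 mM NaCl, 1 mM CaCl2, 0.005% P-20, incubated with test compound overnight in the dark. Anisotropy read; % inhibition relative to DMSO wells and probe-without-PCSK9 wells.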
# T1 sequence (Q8NBP7 153-692): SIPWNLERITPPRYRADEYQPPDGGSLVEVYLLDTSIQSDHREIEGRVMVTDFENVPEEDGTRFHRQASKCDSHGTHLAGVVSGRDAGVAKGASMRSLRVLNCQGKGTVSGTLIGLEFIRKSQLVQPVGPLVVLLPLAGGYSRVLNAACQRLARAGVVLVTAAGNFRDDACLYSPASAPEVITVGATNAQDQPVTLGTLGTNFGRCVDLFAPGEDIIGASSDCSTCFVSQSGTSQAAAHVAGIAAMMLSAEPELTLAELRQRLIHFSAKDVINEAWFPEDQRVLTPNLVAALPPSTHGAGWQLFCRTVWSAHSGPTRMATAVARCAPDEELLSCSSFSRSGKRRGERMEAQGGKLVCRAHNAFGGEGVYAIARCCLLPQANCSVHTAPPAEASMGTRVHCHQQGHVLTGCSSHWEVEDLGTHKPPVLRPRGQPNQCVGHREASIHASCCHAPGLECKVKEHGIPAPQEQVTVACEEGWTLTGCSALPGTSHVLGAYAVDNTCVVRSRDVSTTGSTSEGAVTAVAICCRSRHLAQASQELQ
SMILES,ΔTm at 300 µM (PCSK9 [1]) [°C],IC50 (PCSK9 [2]) [nM],DSC ΔTm (PCSK9 [1]) [°C]
"C[C@]1(CC(=O)Nc2nccs2)NCCc2cc(OCCn3cc(-c4cnccn4)nn3)c(Oc3ccc(C(=O)O)c(F)c3)cc21 [Example 49, (R)-2-fluoro-4-((1-methyl-1-(2-oxo-2-(thiazol-2-ylamino)ethyl)-6-(2-(4-(pyrazin-2-yl)-1H-1,2,3-triazol-1-yl)ethoxy)-1,2,3,4-tetrahydroisoquinolin-7-yl)oxy)benzoic acid]",6.29,682,
"C[C@]1(CC(=O)Nc2nccs2)NCCc2cc(OCCn3cc(CNS(C)(=O)=O)nn3)c(Oc3ccc(C(=O)O)c(F)c3)cc21 [Example 50, (R)-2-fluoro-4-((1-methyl-6-(2-(4-(methylsulfonamidomethyl)-1H-1,2,3-triazol-1-yl)ethoxy)-1-(2-oxo-2-(thiazol-2-ylamino)ethyl)-1,2,3,4-tetrahydroisoquinolin-7-yl)oxy)benzoic acid]",6.74,683,
"Cc1ccc(C2C(C(=O)O)c3ccccc3C(=O)N2c2cccc(-c3cn(CCOc4cc5c(cc4Oc4ccc(C(=O)O)c(F)c4)[C@@](C)(CC(=O)Nc4nccs4)NCC5)nn3)c2)cc1 (stereo partly drawn) [Example 51, 2-(3-(1-(2-(((R)-7-(4-carboxy-3-fluorophenoxy)-1-methyl-1-(2-oxo-2-(thiazol-2-ylamino)ethyl)-1,2,3,4-tetrahydroisoquinolin-6-yl)oxy)ethyl)-1H-1,2,3-triazol-4-yl)phenyl)-1-oxo-3-(p-tolyl)-1,2,3,4-tetrahydroisoquinoline-4-carboxylic acid]",6.87,705,
"COc1ccccc1C(=O)Nc1ccccc1-n1cc(C(=O)NCc2cn(CCOc3cc4c(cc3Oc3ccc(C(=O)O)c(F)c3)[C@@](C)(CC(=O)Nc3nccs3)NCC4)nn2)nc1C [Example 52, (R)-2-fluoro-4-((6-(2-(4-((1-(2-(2-methoxybenzamido)phenyl)-2-methyl-1H-imidazole-4-carboxamido)methyl)-1H-1,2,3-triazol-1-yl)ethoxy)-1-methyl-1-(2-oxo-2-(thiazol-2-ylamino)ethyl)-1,2,3,4-tetrahydroisoquinolin-7-yl)oxy)benzoic acid]",5.58,778,
"C[C@]1(CC(=O)Nc2nccs2)NCCc2cc(OCCn3cc(C(O)C(N)C(=O)O)nn3)c(Oc3ccc(C(=O)O)c(F)c3)cc21 (stereo partly drawn) [Example 53, 4-(((1R)-6-(2-(4-(2-amino-2-carboxy-1-hydroxyethyl)-1H-1,2,3-triazol-1-yl)ethoxy)-1-methyl-1-(2-oxo-2-(thiazol-2-ylamino)ethyl)-1,2,3,4-tetrahydroisoquinolin-7-yl)oxy)-2-fluorobenzoic acid]",6.96,823,
"Cc1ccc(C2C(C(=O)O)c3ccccc3C(=O)N2c2cccc(-c3cn(CCOc4cc5c(cc4Oc4ccc(C(=O)O)c(F)c4)[C@@](C)(CC(=O)Nc4nccs4)NCC5)nn3)c2)cc1 (stereo partly drawn) [Example 54, 2-(3-(1-(2-(((R)-7-(4-carboxy-3-fluorophenoxy)-1-methyl-1-(2-oxo-2-(thiazol-2-ylamino)ethyl)-1,2,3,4-tetrahydroisoquinolin-6-yl)oxy)ethyl)-1H-1,2,3-triazol-4-yl)phenyl)-1-oxo-3-(p-tolyl)-1,2,3,4-tetrahydroisoquinoline-4-carboxylic acid]",,837,5.98
"C[C@]1(CC(=O)Nc2nccs2)NCCc2cc(OCCn3cc(C(O)CN)nn3)c(Oc3ccc(C(=O)O)c(F)c3)cc21 (stereo partly drawn) [Example 55, 4-(((1R)-6-(2-(4-(2-amino-1-hydroxyethyl)-1H-1,2,3-triazol-1-yl)ethoxy)-1-methyl-1-(2-oxo-2-(thiazol-2-ylamino)ethyl)-1,2,3,4-tetrahydroisoquinolin-7-yl)oxy)-2-fluorobenzoic acid]",5.82,878,
"C[C@]1(CC(=O)Nc2nccs2)NCCc2cc(OCC3CCCCO3)c(Oc3ccc(C(=O)O)c(F)c3)cc21 (stereo partly drawn) [Example 62, 2-fluoro-4-(((1R)-1-methyl-1-(2-oxo-2-(thiazol-2-ylamino)ethyl)-6-((tetrahydro-2H-pyran-2-yl)methoxy)-1,2,3,4-tetrahydroisoquinolin-7-yl)oxy)benzoic acid]",6.03,529,
"C[C@]1(CC(=O)Nc2nccs2)NCCc2cc(OCC(=O)O)c(Oc3ccc(C(=O)O)c(F)c3)cc21 [Example 64, (R)-4-((6-(carboxymethoxy)-1-methyl-1-(2-oxo-2-(thiazol-2-ylamino)ethyl)-1,2,3,4-tetrahydroisoquinolin-7-yl)oxy)-2-fluorobenzoic acid]",7.83,294,
"C[C@]1(CC(=O)Nc2nccs2)NCCc2cc(OCc3ccccn3)c(Oc3ccc(C(=O)O)c(F)c3)cc21 [Example 65, (R)-2-fluoro-4-((1-methyl-1-(2-oxo-2-(thiazol-2-ylamino)ethyl)-6-(pyridin-2-ylmethoxy)-1,2,3,4-tetrahydroisoquinolin-7-yl)oxy)benzoic acid]",7.31,299,
"C[C@]1(CC(=O)Nc2nccs2)NCCc2cc(OCC3CCCCO3)c(Oc3ccc(C(=O)O)c(F)c3)cc21 (stereo partly drawn) [Example 66, 2-fluoro-4-(((1R)-1-methyl-1-(2-oxo-2-(thiazol-2-ylamino)ethyl)-6-((tetrahydro-2H-pyran-2-yl)methoxy)-1,2,3,4-tetrahydroisoquinolin-7-yl)oxy)benzoic acid]",,395,9.14
"C[C@]1(CC(=O)Nc2nccs2)NCCc2cc(OCC3CCCO3)c(Oc3ccc(C(=O)O)cc3)cc21 (stereo partly drawn) [Example 67, 4-(((1R)-1-methyl-1-(2-oxo-2-(thiazol-2-ylamino)ethyl)-6-((tetrahydrofuran-2-yl)methoxy)-1,2,3,4-tetrahydroisoquinolin-7-yl)oxy)benzoic acid]",7.31,420,
"C[C@]1(CC(=O)Nc2nccs2)NCCc2cc(OCc3ncccn3)c(Oc3ccc(C(=O)O)c(F)c3)cc21 [Example 68, (R)-2-fluoro-4-((1-methyl-1-(2-oxo-2-{thiazol-2-ylamino)ethyl)-6-(pyrimidin-2-ylmethoxy)-1,2,3,4-tetrahydroisoquinolin-7-yl)oxy)benzoic acid]",7.56,477,
"COCCOc1cc2c(cc1Oc1ccc(C(=O)O)cc1)[C@@](C)(CC(=O)Nc1nccs1)NCC2 [Example 69, (R)-4-((6-(2-methoxyethoxy)-1-methyl-1-(2-oxo-2-(thiazol-2-ylamino)ethyl)-1,2,3,4-tetrahydroisoquinolin-7-yl)oxy)benzoic acid]",7.65,541,
"COC(=O)c1ccc(Oc2cc3c(cc2OCc2ncccn2)CCN[C@]3(C)CC(=O)Nc2nccs2)cc1F [Example 71, methyl (R)-2-fluoro-4-((1-methyl-1-(2-oxo-2-(thiazol-2-ylamino)ethyl)-6-(pyrimidin-2-ylmethoxy)-1,2,3,4-tetrahydroisoquinolin-7-yl)oxy)benzoate]",6.36,645,
"COC(=O)c1ccc(Oc2cc3c(cc2OCC2CCCCO2)CCN[C@]3(C)CC(=O)Nc2nccs2)cc1F (stereo partly drawn) [Example 72, methyl 2-fluoro-4-(((1R)-1-methyl-1-(2-oxo-2-(thiazol-2-ylamino)ethyl)-6-((tetrahydro-2H-pyran-2-yl)methoxy)-1,2,3,4-tetrahydroisoquinolin-7-yl)oxy)benzoate]",6.15,680,
